Marks after values point to notes of the source that are not given here.
Key:
[1] = target: T1, OXA-1 (Escherichia coli, UniProt P13661); test: Competitive assay with nitrocefin (RSAI); type: biochemical, E. coli 1527E; parameters: the beta-lactamase has to be extracted from the cells for the purpose of the present invention; made in house; host or cells: E. coli 1527E according to the earlier reading (crude cell extract)
[2] = target: Chromosomal, hyper-induced beta-lactamase enzyme (Escherichia coli, UniProt P00811); test: Competitive assay with nitrocefin (RSAI); type: biochemical, E. coli SNU35; parameters: Normally, therefore, the beta-lactamase has to be extracted from the cells for the purpose of the present invention; endogenous in cells; host or cells: E. coli SNU 35 (artificially produced strain)
[3] = test system: K10317; test: Competitive assay with nitrocefin (RSAI); type: biochemical, K.aerog. 10317
From the text: (§1) It is convenient to express the results in terms of a Relative Substrate Affinity Index (RSAI) value.
(§2) RSAI = Concentration of competing substrate which gives 50% inhibition of ring-opening hydrolysis of the chromogenic substrate
(§3) Concentration of chromogenic substrate in the assay A high RSAI value therefore indicates a low affinity of the beta-lactamase for that competing substrate, and therefore predicts resistance of a beta-lactam competing substrate to hydrolysis by the beta-lactamase. Low RSAI values, in contrast, predict sensitivity to hydrolysis by a beta-lactamase.
(§4) Beta-lactam antibiotics which bind to the TEM-2 enzyme compete with nitrocefin in the assay. […] . This concentration of ampicillin is a direct estimate of the relative affinity of the TEM-2 enzyme for ampicillin. […] . The RSAI value was therefore 1.3.

[4] = target: T2, PSE-1 (Pseudomonas aeruginosa, UniProt Q03170); test: Competitive assay with nitrocefin (RSAI); type: biochemical, Ps.aerug. 1937E; parameters: Normally, therefore, the beta-lactamase has to be extracted from the cells for the purpose of the present invention; endogenous in cells
[5] = target: T3, SHV-1 (Escherichia coli, UniProt P0AD63); test: Competitive assay with nitrocefin (RSAI); type: biochemical, E. coli 2008E; parameters: the beta-lactamase has to be extracted from the cells for the purpose of the present invention; made in house; host or cells: E. coli 2008E (crude cell extract)
[6] = target: T4, TEM-1 (Escherichia coli, UniProt P62593); test: Competitive assay with nitrocefin (RSAI); type: biochemical, E. coli 2136E; parameters: the beta-lactamase has to be extracted from the cells for the purpose of the present invention; made in house; host or cells: E. coli 2136E (plasmid-bearing strain; crude cell extract)
[7] = target: T5, OXA-2 (Escherichia coli, UniProt P0A1V9); test: Competitive assay with nitrocefin (RSAI); type: biochemical, E. coli R46; parameters: the beta-lactamase has to be extracted from the cells for the purpose of the present invention; made in house; host or cells: E. coli carrying R46 according to the earlier reading (crude cell extract)
[8] = target: T6, PSE-4 (Pseudomonas aeruginosa, UniProt P16897); test: Competitive assay with nitrocefin (RSAI); type: biochemical, Ps.aerug. 1559E; parameters: Normally, therefore, the beta-lactamase has to be extracted from the cells for the purpose of the present invention; endogenous in cells
[9] = target: T7, Chromosomal, induced beta-lactamase enzyme (Pseudomonas aeruginosa, UniProt P24735); test: Competitive assay with nitrocefin (RSAI); type: biochemical, Ps.aerug. 1937E + ampicillin
T7 construct: Normally, therefore, the beta-lactamase has to be extracted from the cells for the purpose of the present invention; endogenous in cells; host or cells: Pseudomonas aeruginosa 1937E grown with ampicillin

[10] = target: T8, PSE-2 (Pseudomonas aeruginosa, UniProt P14489); test: Competitive assay with nitrocefin (RSAI); type: biochemical, Ps.aerug. 1973E; parameters: Normally, therefore, the beta-lactamase has to be extracted from the cells for the purpose of the present invention; endogenous in cells
[11] = test system: HMS-1; test: Competitive assay with nitrocefin (RSAI); type: biochemical, E. coli 1946
[12] = test system: K1073; test: Competitive assay with nitrocefin (RSAI); type: biochemical, Klebsiella 1073
From the text: as §1, §2, §3, §4

[13] = target: T9, Chromosomal, constitutive beta-lactamase enzyme (Enterobacter cloacae, UniProt P05364); test: Competitive assay with nitrocefin (RSAI); type: biochemical, E. cloacae
T9 construct: Normally, therefore, the beta-lactamase has to be extracted from the cells for the purpose of the present invention; endogenous in cells

[14] = target: T10, OXA-3 (Pseudomonas aeruginosa, UniProt Q51429); test: Competitive assay with nitrocefin (RSAI); type: biochemical, E. coli R57B; parameters: Normally, therefore, the beta-lactamase has to be extracted from the cells for the purpose of the present invention; endogenous in cells
[15] = test system: K17; test: Competitive assay with nitrocefin (RSAI); type: biochemical, Klebsiella 17
From the text: as §1, §2, §3, §4

[16] = target: TEM-2 beta-lactamase (Escherichia coli, UniProt P62593, Q37K); type: biochemical, E. coli C9 RP4
[17] = target: T11, TEM-2 (Escherichia coli, UniProt P62593, Q37K); test: Competitive assay with nitrocefin (RSAI); type: biochemical, E. coli 1725E
From the text: as §1, §2, §3, §4

[18] = test system: PSE-3; test: Competitive assay with nitrocefin (RSAI); type: biochemical, Ps.aerug. 1920E
[19] = target: T11, TEM-2; test: 6-well visual test with nitrocefin; details: 3 minutes, room temperature
[20] = target: T2, PSE-1; test: 6-well visual test with nitrocefin; details: 3 minutes, room temperature
[21] = target: E. cloacae (Enterobacter cloacae, UniProt P05364); test: 6-well visual test with nitrocefin; details: 3 minutes, room temperature
[22] = target: T3, SHV-1; test: 6-well visual test with nitrocefin; details: 3 minutes, room temperature
[23] = target: T10, OXA-3; test: 6-well visual test with nitrocefin; details: 3 minutes, room temperature
[24] = target: Ps +AMP (Chromosomal) (Pseudomonas aeruginosa, UniProt P24735); test: 6-well visual test with nitrocefin; details: 3 minutes, room temperature
[25] = target: T1, OXA-1; test: 6-well visual test with nitrocefin; details: 3 minutes, room temperature
[26] = target: T6, PSE-4; test: 6-well visual test with nitrocefin; details: 3 minutes, room temperature
[27] = test system: PSE-3; test: 6-well visual test with nitrocefin; details: 3 minutes, room temperature
[28] = test system: HMS-1; test: 6-well visual test with nitrocefin; details: 3 minutes, room temperature
[29] = target: T4, TEM-1; test: 6-well visual test with nitrocefin; details: 3 minutes, room temperature
[30] = target: T8, PSE-2; test: 6-well visual test with nitrocefin; details: 3 minutes, room temperature
[31] = target: T5, OXA-2; test: 6-well visual test with nitrocefin; details: 3 minutes, room temperature
[32] = test system: O=C(Cc1cccs1)N[C@@H]1C(=O)N2C(C(=O)O)=C(C=Cc3ccc([N+](=O)[O-])cc3[N+](=O)[O-])CS[C@H]12; test: purified protein, by the assay type; details: pH 7.0; 37.0 °C
[33] = well C: Cefamandole 1:1 to nitrocefin
[34] = well B: Cefotaxime 100:1 to nitrocefin
[35] = well D: Mecillinam 20:1 to nitrocefin

Molecule | RSAI [1] | RSAI [2] | RSAI [3] | RSAI [4] | RSAI [5] | RSAI [6] | RSAI [7] | RSAI [8] | RSAI [9] | RSAI [10] | RSAI [11] | RSAI [12] | RSAI [13] | RSAI [14] | RSAI [15] | RSAI [17] | RSAI [18] | other results
CC1(C)S[C@@H]2[C@H](NC(=O)[C@H](N)c3ccccc3)C(=O)N2[C@H]1C(=O)O [Ampi-cillin, ampicillin] | 4 | 0.03* | 9.4 | 0.4 | 3 | 4 | 10 | 2.7 | 0.12 | 0.85 | 0.5 | 6.7 | 0.02 | 0.2 | 2.9 | 2.6 | 1.7 | RSAI ([16]; without pre-incubation, nitrocefin 50 micrograms/ml, after 4.5 minutes, 37°C): 1.3
Cn1nnnc1SCC1=C(C(=O)O)N2C(=O)[C@@H](NC(=O)[C@H](O)c3ccccc3)[C@H]2SC1 [Cefaman-dole, Cefamandole] | 1.5 | 0.12* | 5 | 6.9 | 6.6 | 11 | 1.7 | 9 | 5 | 0.06 | 0.5 | 3.9 | 0.03 | 0.75 | 1.8 | 11 | 0.006 | Score in 6-well visual test [19, 33]: ++; Score in 6-well visual test [20, 33]: ++; Score in 6-well visual test [21, 33]: -; Score in 6-well visual test [22, 33]: ++; Score in 6-well visual test [23, 33]: +; Score in 6-well visual test [24, 33]: +; Score in 6-well visual test [25, 33]: ++; Score in 6-well visual test [26, 33]: ++; Score in 6-well visual test [27, 33]: -; Score in 6-well visual test [28, 33]: +; Score in 6-well visual test [29, 33]: ++; Score in 6-well visual test [30, 33]: -; Score in 6-well visual test [31, 33]: +
CO/N=C(\C(=O)N[C@@H]1C(=O)N2C(C(=O)O)=C(COC(C)=O)CS[C@H]12)c1csc(N)n1 [Cefotaxime] | 9 | 0.004 | 320 | 70 | 400 | 400 | 12 | 50 | 0.004 | 9.6 | 11 | 330 | 0.0006 | 15 | 60 | 600 | 100 | Score in 6-well visual test [19, 34]: ++; Score in 6-well visual test [20, 34]: +; Score in 6-well visual test [21, 34]: -; Score in 6-well visual test [22, 34]: ++; Score in 6-well visual test [23, 34]: -; Score in 6-well visual test [24, 34]: -; Score in 6-well visual test [25, 34]: -; Score in 6-well visual test [26, 34]: +; Score in 6-well visual test [27, 34]: +; Score in 6-well visual test [28, 34]: -; Score in 6-well visual test [29, 34]: ++; Score in 6-well visual test [30, 34]: -; Score in 6-well visual test [31, 34]: -
Cc1onc(-c2ccccc2Cl)c1C(=O)N[C@@H]1C(=O)N2[C@@H]1SC(C)(C)[C@@H]2C(=O)O [Cloxacillin] | 0.6 | 0.0000016* | 3.7* | 2 | 2 | 0.75 | 30 | 3.3 | 0.00017 | 4.5 | 0.02 | 4* | 0.00004 | 0.01 | 14 | 0.5 | 0.24 | nature of the binding to the enzyme ([16]; from kinetics of nitrocefin cleavage): does not undergo irreversible binding
CC1(C)S[C@@H]2[C@H](/N=C/N3CCCCCC3)C(=O)N2[C@H]1C(=O)O [Mecil-linam, Mecillinam] | 400 | 0.7* | 80 | 66 | 80 | 90 | 100 | 140 | 68 | 450 | 2 | 102 | 1.3* | 30 | 260 | 80 | 15 | Score in 6-well visual test [19, 35]: ++; Score in 6-well visual test [20, 35]: ++; Score in 6-well visual test [21, 35]: -; Score in 6-well visual test [22, 35]: ++; Score in 6-well visual test [23, 35]: +; Score in 6-well visual test [24, 35]: +; Score in 6-well visual test [25, 35]: ++; Score in 6-well visual test [26, 35]: ++; Score in 6-well visual test [27, 35]: +; Score in 6-well visual test [28, 35]: -; Score in 6-well visual test [29, 35]: ++; Score in 6-well visual test [30, 35]: ++; Score in 6-well visual test [31, 35]: +
(Pseudomonas aeruginosa) |  |  |  |  |  |  |  |  |  |  |  |  |  |  |  |  |  | Km [32]: 28 µg/mL

Reference: patent publication EP0059645A1, “Method and kit for identification of beta-lactamases” (NATIONAL RESEARCH DEVELOPMENT CORPORATION, priority 1981, dated 1982)
